Target: T1, cNOR (c-type nitric oxide reductase, NorB and NorC) (Paracoccus denitrificans, UniProt A1B4X6+Q51662)
T1 construct: gene Pden_2483; NorBC two-subunit complex, plasmid pNOREX in E. coli JM109 with pEC86, DDM-solubilised and purified; reconstituted in liposomes for the Km
T1 sequence (A1B4X6 1-462): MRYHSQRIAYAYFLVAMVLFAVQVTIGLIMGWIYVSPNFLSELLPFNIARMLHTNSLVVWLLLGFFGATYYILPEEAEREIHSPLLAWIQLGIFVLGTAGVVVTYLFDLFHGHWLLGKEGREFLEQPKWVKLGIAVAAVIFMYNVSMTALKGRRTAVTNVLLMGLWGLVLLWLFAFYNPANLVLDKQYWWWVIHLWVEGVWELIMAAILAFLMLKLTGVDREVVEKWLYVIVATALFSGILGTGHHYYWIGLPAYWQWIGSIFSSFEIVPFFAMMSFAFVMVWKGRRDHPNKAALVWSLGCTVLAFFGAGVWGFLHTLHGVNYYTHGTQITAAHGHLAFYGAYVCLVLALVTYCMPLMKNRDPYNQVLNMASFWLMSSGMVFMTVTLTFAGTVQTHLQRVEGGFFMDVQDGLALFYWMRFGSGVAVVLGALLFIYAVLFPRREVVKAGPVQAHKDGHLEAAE
T1 sequence (Q51662 2-150): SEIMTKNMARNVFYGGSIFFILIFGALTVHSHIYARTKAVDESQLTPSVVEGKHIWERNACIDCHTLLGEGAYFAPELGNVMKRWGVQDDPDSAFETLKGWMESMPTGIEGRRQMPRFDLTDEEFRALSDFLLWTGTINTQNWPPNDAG
Experiment: Clark-type NO electrode, inhibition of NO reduction, data not shown
Assay type: biochemical
Details: inhibitor at high (mM) concentrations; 50 mM HEPES pH 7.0, 50 mM KCl

Question: With `O=NO` [nitrite] as the compound, how does the “Clark-type NO electrode, inhibition of NO reduction, data not shown” value read?
Answer: Its value is “For nitrite, we see that it can inhibit cNOR activity, but only at high (mM)”.

Source: PMC6872814, “Functional interactions between nitrite reductase and nitric oxide reductase from Paracoccus denitrificans” (Scientific Reports, 2019)
